What was measured:
CAIII = CAIII (Homo sapiens, UniProt P07451); assay: Mass spectrometry (Q-TOF) of covalent modification of CAIII; format: binding; details: CAIII in the presence of ligand
CAIX [1] = target: T1, CAIX (Homo sapiens, UniProt Q16790); assay: Stopped-flow CO2 hydration, CAIX activity before and after dialysis; format: biochemical; details: for CAIX catalytic activity after 32 hours of dialysis: […] CAIX incubated 2 h with 15 μM AV19-37 or 100 μM AV19-36, dialyzed in Tris buffer pH 7
Method: A—CAIX incubated for 2 hours with compounds and the CO2 hydration was measured. B—CAIX was incubated for 2 hours with the compound and then the complex was dialyzed for 32 hours in Tris buffer (pH 7.0). Black curves represent CAIX catalyzed CO2 hydration reaction. Grey curves are spontaneous CO2 hydration without the CA enzyme.
CO2 hydration velocities were measured by recording absorbance of phenol red (final concentration 50 μM) at 557 nm by using Applied Photophysics SX.18 MV-R stopped-flow spectrometer.

CAIX [2] = target: T1, CAIX; assay: Isothermal titration calorimetry (ITC) binding to CAIX; details: pH 7.0, TRIS chloride buffer, 37° C., FIG. 1D
Method: A—Raw data of CAIX unfolding in the presence of different compound concentrations. B—dependence of CAIX melting temperature Tm on ligand concentration. […] C—raw ITC curve at pH 7.0, TRIS chloride buffer, at 37° C. D—Integrated ITC curve.

Sequence of CAIII (P07451 whole entry): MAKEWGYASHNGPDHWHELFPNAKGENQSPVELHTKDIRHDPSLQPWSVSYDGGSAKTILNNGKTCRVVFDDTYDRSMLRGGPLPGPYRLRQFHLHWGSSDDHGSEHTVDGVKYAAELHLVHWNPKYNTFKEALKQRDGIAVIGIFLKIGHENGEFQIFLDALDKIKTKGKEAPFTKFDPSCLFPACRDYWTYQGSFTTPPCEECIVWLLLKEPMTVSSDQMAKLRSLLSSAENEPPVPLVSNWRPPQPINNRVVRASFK

| Compound | covalent modification by MS (CAIII) | CAIX catalytic activity after 32 hours of dialysis (CAIX [1]) | CAIX catalytic activity after 2 hours of incubation with compound (CAIX [1]; […] CAIX, 15 μM compound, CO2 hydration, 25° C., pH 7.5) | compound binding stoichiometry (CAIX [2]) |
| --- | --- | --- | --- | --- |
| CC(=O)OCCS(=O)(=O)c1c(F)c(F)c(S(N)(=O)=O)c(F)c1NC1CCCCCCC1 [AV19-37, 2-((2-(cyclooctylamino)-3,5,6-trifluoro-4-sulfamoylphenyl)sulfonyl)ethyl acetate] | did not show a covalent modification | not restored | lost its catalytic activity | ~1 |
| CC(=O)OCCSc1c(F)c(F)c(S(N)(=O)=O)c(F)c1F [AV19-36, 2-((2,3,5,6-tetrafluoro-4-sulfamoylphenyl)thio)ethyl acetate] |  | partially restored its catalytic activity |  |  |

Reference: US20250066291A1, “TARGETED COVALENT INHIBITORS FOR CARBONIC ANHYDRASES” (VILNIUS UNIVERSITY, priority 2023, published 2025)
